Laboratory results published in article PMC10648875 (Antimicrobial Agents and Chemotherapy, 2023).
≈ marks a conversion by molar mass, not a printed value. Where “and” joins values, the source holds several entries; their conditions need not be identical. Equal entries are not always repeated. Where two headings read alike, the source gives them in different places.

Experiments:
[1] = test system: surveillance isolates of carbapenem-resistant strains of Enterobacterales; experiment: MIC testing of SENTRY surveillance CRE isolates (Table 4, Table S4); format: cell-based; conditions: for % Inhibited: at ≤8 µg/mL β-lactam (IMP/REL ≤1/4, MEM/VAB ≤4/8 (≤8/8) µg/mL), footnote b; for MIC50: read-out: MIC50
[2] = test system: PAM4890 producing IMP-19; experiment: MIC, engineered isogenic strain; format: cell-based, P. aeruginosa; conditions: IMP-19, class B; BLIs at fixed 4 µg/mL
[3] = test system: K. pneumoniae ATCC BAA-1705 (KPM1123), KPC-2; experiment: MIC, reference strain; format: cell-based
Experimental: (§1) Other BL/BLI combinations were tested at their recommended BLI concentrations. MIC values for the partner antibiotics and BLIs alone were also determined (Table 2; Table S1). All investigational and marketed BLIs enhanced the potency of antibiotics according to their spectrum of inhibition. MIC values against CLSI-approved QC strains were within acceptable ranges for drugs and combinations tested (Table 3).
(§2) Isolates were tested for antimicrobial susceptibility using the broth microdilution methodology per CLSI M07 (2018) guidelines ([40]). JMI Laboratories produced frozen-form 96-well panels with cation-adjusted Mueller-Hinton broth as the testing medium. Current CLSI quality assurance practices were followed when performing the susceptibility tests. MIC values were validated by concurrently testing the following CLSI-recommended ([27]) QC reference strains: E. coli NCTC 13353 (CTX-M-15), Klebsiella pneumoniae ATCC BAA-2814 (KPC-3), Klebsiella pneumoniae ATCC BAA-1705 (KPC-2), and K. pneumoniae ATCC 700603 (SHV-18). The inoculum density during susceptibility testing was monitored by bacterial colony counts. Where applicable, QC ranges for tested reference strains were those approved or published by the CLSI ([27]).

[4] = test system: K. pneumoniae ATCC BAA-2814 (KP1074), KPC-3; experiment: MIC, reference strain; format: cell-based
Experimental: as §1, §2

[5] = test system: Klebsiella pneumoniae ATCC 700603 (KPM2881), SHV-18; experiment: MIC, reference strain; format: cell-based; conditions: Klebsiella pneumoniae, ATCC700603; SHV-18; BLI at the fixed concentration in brackets; read-out: MIC
Experimental: as §1, §2

[6] = test system: K. pneumoniae CDC 0135 (KP1291), VIM-1; experiment: MIC, reference strain; format: cell-based; conditions: Klebsiella pneumoniae, BLI at the fixed concentration in brackets, read-out: MIC
Experimental: as §1, §2

[7] = test system: E. coli CDC 0069 (EC1106), NDM-1; experiment: MIC, reference strain; format: cell-based; conditions: Escherichia coli, BLI at the fixed concentration in brackets, read-out: MIC
Experimental: as §1, §2

[8] = test system: PAM4879 producing CcrA; experiment: MIC, engineered isogenic strain; format: cell-based, P. aeruginosa; conditions: class B, BLIs at fixed 4 µg/mL
[9] = test system: PAM4885 producing SPM-1; experiment: MIC, engineered isogenic strain; format: cell-based, P. aeruginosa; conditions: SPM-1, class B; BLIs at fixed 4 µg/mL
[10] = test system: PAM4907 producing PER-4; experiment: MIC, engineered isogenic strain; format: cell-based, P. aeruginosa; conditions: PER-4, class A; BLIs at fixed 4 µg/mL
[11] = test system: PAM4196 producing IMP-13; experiment: MIC, engineered isogenic strain; format: cell-based, P. aeruginosa; conditions: IMP-13, class B; BLIs at fixed 4 µg/mL
[12] = test system: P. aeruginosa BAA-3197 (PA5257), KPC-2; experiment: MIC, reference strain; format: cell-based; conditions: Pseudomonas aeruginosa, BAA3197; KPC-2; BLI at the fixed concentration in brackets; read-out: MIC
[13] = test system: Escherichia coli NCTC 13353 (ECM7514), CTX-M-15; experiment: MIC, reference strain; format: cell-based; conditions: Escherichia coli, NCTC13353; CTX-M-15; BLI at the fixed concentration in brackets; read-out: MIC
Experimental: as §1
as §2, with “([27]). Meropenem was purchased from Carbosynth; ceftolozane was synthesized at Acme Bioscience, Palo Alto, CA, USA; all other antibiotics were from Sigma Aldrich. Xeruborbactam was synthesized at Qpex Biopharma, San Diego, CA, USA. Avibactam was purchased from eNovation, Chemicals LLC, Bridgewater, NJ, USA. Vaborbactam was synthesized at The Medicines Company, San Diego, CA. Relebactam, taniborbactam, and […] were synthesized at Acme Bioscience.” for “([27]).”

[14] = test system: PAM4792 producing OXA-2; experiment: MIC, engineered isogenic strain; format: cell-based, P. aeruginosa; conditions: OXA-2, class D; BLIs at fixed 4 µg/mL
[15] = test system: PAM4884 producing ADC-181; experiment: MIC, engineered isogenic strain; format: cell-based, P. aeruginosa; conditions: ADC-181, class C; BLIs at fixed 4 µg/mL
[16] = test system: PAM4743 producing CTX-M-15; experiment: MIC, engineered isogenic strain; format: cell-based, P. aeruginosa; conditions: CTX-M-15, class A; BLIs at fixed 4 µg/mL
[17] = test system: PAM4745 producing P99; experiment: MIC, engineered isogenic strain; format: cell-based, P. aeruginosa; conditions: P99, class C; BLIs at fixed 4 µg/mL

In the case of `C[C@@H](O)[C@H]1C(=O)N2C(C(=O)O)=C(S[C@@H]3CN[C@H](C(=O)N(C)C)C3)[C@H](C)[C@H]12` [MEM, meropenem], the MIC90 [1] is reported as 16 and > 32, the “% Inhibited” value ([1]; All surveillance CRE) is reported as 30.20% and the MIC50 ([1]; All surveillance CRE) is reported as 32 µg/mL (≈ 83.4 µM). For the same compound, the MIC90 ([1]; All surveillance CRE, read-out: MIC90) was greater than 32 µg/mL, the “% Inhibited” value ([1]; KPC subset) was 29.50% and the MIC50 ([1]; KPC subset) was 32 µg/mL (≈ 83.4 µM). The MIC90 ([1]; KPC subset, read-out: MIC90) was greater than 32 µg/mL, the “% Inhibited” value ([1]; MBL subset) was 9.00% and the MIC50 ([1]; MBL subset) was greater than 32 µg/mL. The MIC90 ([1]; MBL subset, read-out: MIC90) was greater than 32 µg/mL, the “% Inhibited” value ([1]; NDM subset) was 6.30% and the MIC50 ([1]; NDM subset) was greater than 32 µg/mL. For the same compound, the MIC90 ([1]; NDM subset, read-out: MIC90) was greater than 32 µg/mL, the “% Inhibited” value ([1]; No MBL subset) was 39.40% and the MIC50 ([1]; No MBL subset) was 16 µg/mL (≈ 41.7 µM). The MIC90 ([1]; No MBL subset, read-out: MIC90) was greater than 32 µg/mL, the “% Inhibited” value ([1]; Non-CP CRE subset) was 81.80% and the MIC50 ([1]; Non-CP CRE subset) was 8 µg/mL (≈ 20.9 µM). For the same compound, the MIC90 ([1]; Non-CP CRE subset, read-out: MIC90) was 16 µg/mL (≈ 41.7 µM), the “% Inhibited” value ([1]; OXA-48 subset) was 37.20% and the MIC50 ([1]; OXA-48 subset) was 32 µg/mL (≈ 83.4 µM). The MIC90 ([1]; OXA-48 subset, read-out: MIC90) was greater than 32 µg/mL, the “% Inhibited” value ([1]; VIM subset) was 35.00% and the MIC50 ([1]; VIM subset) was 16 µg/mL (≈ 41.7 µM). The MIC90 ([1]; VIM subset, read-out: MIC90) was greater than 32 µg/mL, the MIC [2] was 1 µg/mL (≈ 2.61 µM) and the MIC ([3]; Klebsiella pneumoniae, ATCCBAA1705, KPC-2, BLI at the fixed concentration in brackets, read-out: MIC) was 32 µg/mL. The “MIC (number of observations)” value ([3]; Table S1, repeated QC testing) was 8 (2)-16 (16)-32 (28) µg/ml, the MIC ([4]; Klebsiella pneumoniae, ATCCBAA2814, KPC-3, BLI at the fixed concentration in brackets, read-out: MIC) was greater than 64 µg/mL and the “MIC (number of observations)” value ([4]; Table S1, repeated QC testing) was greater than 32 µg/mL. The MIC [5] was no more than 0.03 µg/mL, the MIC [6] was 8 µg/mL and the MIC [7] was 32 µg/mL. For the same compound, the MIC [8] was 2 µg/mL (≈ 5.22 µM), the MIC [9] was 32 µg/mL (≈ 83.4 µM) and the MIC [10] was 0.125 µg/mL (≈ 0.326 µM). The MIC [11] was 1 µg/mL (≈ 2.61 µM), the MIC [12] was greater than 64 µg/mL and the MIC [13] was no more than 0.03 µg/mL. For the same compound, the MIC [14] was 2 µg/mL (≈ 5.22 µM), the MIC [15] was 0.125 µg/mL (≈ 0.326 µM) and the MIC [16] was 0.25 µg/mL (≈ 0.652 µM). The MIC [17] was 1 µg/mL (≈ 2.61 µM).
